The text below walks through data of ChEMBL document CHEMBL1147415, “Inhibition kinetics of carba- and C-fucosyl analogues of GDP-fucose against fucosyltransferase V: implication for the reaction mechanism” (Bioorg Med Chem Lett, 2004).

SMILES strings stand for the structures. pKi: −log10 of the molar value.

Assay [1] has as its target T1, 4-galactosyl-N-acetylglucosaminide 3-alpha-L-fucosyltransferase FUT5 (Homo sapiens, UniProt Q11128).
T1 sequence (Q11128 whole entry): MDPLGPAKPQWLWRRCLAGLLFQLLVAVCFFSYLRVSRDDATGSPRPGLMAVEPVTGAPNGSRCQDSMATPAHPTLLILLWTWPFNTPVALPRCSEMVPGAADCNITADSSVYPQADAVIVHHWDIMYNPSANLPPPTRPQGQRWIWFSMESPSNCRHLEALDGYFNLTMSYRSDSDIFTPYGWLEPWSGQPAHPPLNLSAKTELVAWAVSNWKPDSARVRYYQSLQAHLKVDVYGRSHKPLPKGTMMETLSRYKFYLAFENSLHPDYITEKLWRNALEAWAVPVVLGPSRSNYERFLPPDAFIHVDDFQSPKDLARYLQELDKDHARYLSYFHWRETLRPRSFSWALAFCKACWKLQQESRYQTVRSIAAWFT
As to the kind of experiment: Inhibition of Fucosyltransferase 5 by the compound was evaluated; Competitive inhibition.

Assay [2] has as its target T1, 4-galactosyl-N-acetylglucosaminide 3-alpha-L-fucosyltransferase FUT5. As to the kind of experiment: Inhibition of Fucosyltransferase 5 by the compound was evaluated; Weak competitive inhibition.

As to `CC1CC(OP(=O)(O)OP(=O)(O)OC[C@H]2OC(n3cnc4c(O)nc(N)nc43)[C@H](O)[C@@H]2O)C(O)C(O)C1O` (some centres not stated), the negative logarithm of the Ki (pKi) (usually −log10 of the Ki, conventionally taken in molar units) in assay [1] was 4.17.

With `CC1OC(CP(=O)(O)OP(=O)(O)OC[C@H]2OC(n3cnc4c(=O)[nH]c(N)nc43)[C@H](O)[C@@H]2O)C(O)C(O)C1O` (some centres not stated), the pKi in assay [2] was 3.05.
